The nature of data set [1]: Measurement of LogP values by HPLC on reversed phase columns (EEC directive 79/831 Annex V.A8). The data set is classed as physicochemical. As to conditions: method [a]: LC-UV, acidic range, 0.1% formic acid in water and acetonitrile as eluent; Table 1. As to the method:
Measurement of Log P values was performed as outlined above.

The subject of data set [2] is Botrytis cinerea. The data set can be described thus: In vivo preventive test on Botrytis cinerea (grey mould) on gherkin, Examples B, Q1 and R2. Particulars: Botrytis cinerea, 500 ppm of active ingredient, preventive spray, evaluated 4 to 5 days after inoculation, read-out: efficacy.
The test system of data set [3] is Puccinia recondita. The data set can be described thus: In vivo preventive test on Puccinia recondita (brown rust on wheat), Examples C and R3. Particulars: Puccinia recondita, 264 h; 500 ppm of active ingredient; wheat, preventive spray, evaluated 11 days after inoculation; read-out: efficacy.
Data set [4] deals with Pyrenophora teres. The data set can be described thus: In vivo preventive test on Pyrenophora teres (net blotch on barley), Examples D, Q2 and R4. Particulars: Pyrenophora teres, 336 h, 500 ppm of active ingredient, preventive spray, evaluated 14 days after inoculation, read-out: efficacy.
The test system of data set [5] is Septoria tritici. The data set can be described thus: In vivo preventive test on Septoria tritici (leaf spot on wheat), Examples E, Q3 and R5. As to conditions: Zymoseptoria tritici, 576 h, 500 ppm of active ingredient; wheat, preventive spray, evaluated 24 days after inoculation; read-out: efficacy.
The test system of data set [6] is Sphaerotheca fuliginea. In words: In vivo preventive test on Sphaerotheca fuliginea (powdery mildew on cucurbits), Examples F and R6. Particulars: Podosphaera fuliginea, 360 h; 500 ppm of active ingredient; gherkin, preventive spray, evaluated 15 days after inoculation; read-out: efficacy.
The subject of data set [7] is Uromyces appendiculatus. The data set can be described thus: In vivo preventive test on Uromyces appendiculatus (bean rust), Examples G and R7. As to conditions: 264 h, 500 ppm of active ingredient, bean, preventive spray, evaluated 11 days after inoculation, read-out: efficacy.
The test system of data set [8] is Blumeria graminis fsp. hordei. The data set can be described thus: In vivo preventive Blumeria test (barley), Example K. As to conditions: 168 h, 500 ppm of active ingredient, preventive spray, evaluated 7 days after inoculation, read-out: efficacy. An excerpt: After the spray coating has been dried, the plants are dusted with spores of Blumeria graminis fsp. hordei.

In general, chromatographic logP refers to lipophilicity estimated from chromatographic retention. Low values mean a more hydrophilic compound, high ones a more lipophilic compound. Turning to `OC(Cc1ccccc1Cl)(Cn1cncc1I)C1(Cl)CC1` (stereo not shown) [Example I-14], the chromatographic logP in data set [1] is 2.14. The pest or weed control at 500 ppm in data set [2] fell in the range of 90 to 100%; in data set [3], 80 to 89%; in data set [4], 80 to 89%; in data set [5] it was 90 to 100%; in data set [6], 90 to 100%; in data set [7] it was 90 to 100%.

In data set [1], `N#CCc1cncn1CC(O)(Cc1ccccc1Cl)C1(Cl)CC1` (stereo not shown) [Example I-21] yielded a chromatographic logP of 1.66. In addition, the pest or weed control at 500 ppm in data set [2] was 90 to 100%; in data set [3] it was 80 to 89%; in data set [5] it was 70 to 79%; in data set [6] it was 90 to 100%; in data set [7], 70 to 79%.

Regarding `N#Cc1cncn1CC(O)(Cc1cccc(Br)c1)C1(Cl)CC1` (stereo not shown) [Example I-45], the pest or weed control at 500 ppm in data set [2] is 80 to 89%; in data set [3], 90 to 100%; in data set [4], 80 to 89%; in data set [5] it was 90 to 100%; in data set [6] it was 90 to 100%; in data set [7], 90 to 100%.

Regarding `Cc1cccc(CC(O)(Cn2cncc2C#N)C2(Cl)CC2)c1` (stereo not shown) [Example I-59], the pest or weed control at 500 ppm in data set [2] lay within 90 to 100%; in data set [3], 80 to 89%; in data set [5] it was 90 to 100%; in data set [6] it was 90 to 100%; in data set [7], 90 to 100%.

`N#Cc1cncn1CC(O)(Cc1ccnc(Cl)c1)C1(Cl)CC1` (stereo not shown) [Example I-62] gave a chromatographic logP in data set [1] of 2.04. The pest or weed control at 500 ppm in data set [3], in data set [4], in data set [5], in data set [6], in data set [7] and in data set [8] was 90 to 100% throughout.

In data set [1], `Cc1ccccc1CC(O)(Cn1cncc1Cl)C1(Cl)CC1` (stereo not shown) [Example I-71] registered a chromatographic logP of 2.33. In addition, the pest or weed control at 500 ppm in data set [2], in data set [3], in data set [4], in data set [5], in data set [6] and in data set [7] was 90 to 100% each time.

`Cc1cccc(CC(O)(Cn2cncc2Cl)C2(Cl)CC2)c1` (stereo not shown) [Example I-73]: the pest or weed control at 500 ppm in data set [2] is 90 to 100%; in data set [3], 80 to 89%; in data set [4] it was 80 to 89%; in data set [5], 80 to 89%; in data set [6], 90 to 100%.

Regarding `Cc1ccc(CC(O)(Cn2cncc2Cl)C2(Cl)CC2)cc1` (stereo not shown) [Example I-76], the pest or weed control at 500 ppm in data set [2], in data set [3], in data set [4], in data set [5] and in data set [6] was 90 to 100% in each case.

Take `OC(Cc1ccc(Cl)cc1)(Cn1cncc1Cl)C1(Cl)CC1` (stereo not shown) [Example I-77]: the pest or weed control at 500 ppm fell in the range of 90 to 100% in data set [2]; 80 to 89% in data set [3]; 80 to 89% in data set [4]; 90 to 100% in data set [5]; 90 to 100% in data set [6]; 90 to 100% in data set [7].

In the case of `CC1(C(O)(Cc2ccccc2Cl)Cn2cncc2C#N)CC1` (stereo not shown) [Example I-79], the chromatographic logP in data set [1] amounted to 2.87. For the same molecule, the pest or weed control at 500 ppm in data set [2], in data set [3], in data set [4], in data set [5], in data set [6] and in data set [7] was 90 to 100% throughout.

`CC(C)C(O)(Cc1ccccc1Cl)Cn1cncc1C#N` (stereo not shown) [Example I-82] registered a chromatographic logP in data set [1] of 2.67. For the same molecule, the pest or weed control at 500 ppm in data set [2] fell in the range of 90 to 100%; in data set [3], 90 to 100%; in data set [4] it was 80 to 89%; in data set [5] it was 90 to 100%; in data set [6], 90 to 100%; in data set [7], 90 to 100%.

Molecule `Cc1ccc(CC(O)(Cn2cncc2Cl)C2(Cl)CC2)c(F)c1` (stereo not shown) [Example I-108] yielded a chromatographic logP in data set [1] of 2.34. Besides, the pest or weed control at 500 ppm in data set [2], in data set [3], in data set [4], in data set [5] and in data set [6] was 90 to 100% throughout.

Turning to `OC(Cc1ccc(F)c(F)c1)(Cn1cncc1Cl)C1(Cl)CC1` (stereo not shown) [Example I-110], in data set [1], the chromatographic logP was 2.23. Moreover, the pest or weed control at 500 ppm in data set [2] lay in the range of 90 to 100%; in data set [3], 80 to 89%; in data set [4] it was 90 to 100%; in data set [5] it was 80 to 89%; in data set [6] it was 90 to 100%; in data set [7], 90 to 100%.

In data set [1], `CC(C)C(O)(Cc1ccc(Cl)cc1F)Cn1cncc1C#N` (stereo not shown) [Example I-118] registered a chromatographic logP of 2.91. The pest or weed control at 500 ppm is 90 to 100% in data set [2]; 90 to 100% in data set [3]; 70 to 79% in data set [4]; 70 to 79% in data set [5]; 90 to 100% in data set [6]; 90 to 100% in data set [7].

For the molecule `CC1(C(O)(Cc2ccc(F)cc2F)Cn2cncc2C#N)CC1` (stereo not shown) [Example I-124], the chromatographic logP in data set [1] stood at 2.65. Also, the pest or weed control at 500 ppm in data set [2], in data set [3], in data set [4], in data set [5], in data set [6] and in data set [7] was 90 to 100% throughout.

`CC(C)C(O)(Cc1ccc(F)cc1F)Cn1cncc1C#N` (stereo not shown) [Example I-128] returned a chromatographic logP in data set [1] of 2.52. The pest or weed control at 500 ppm in data set [2], in data set [3], in data set [5], in data set [6] and in data set [7] was 90 to 100% in each case.

In the case of `N#Cc1cncn1CC(O)(Cc1ccc(F)cc1F)CC1CC1` (stereo not shown) [Example I-130], the chromatographic logP in data set [1] came to 2.69. In addition, the pest or weed control at 500 ppm in data set [2] lay in the range of 90 to 100%; in data set [3], 90 to 100%; in data set [4], 70 to 79%; in data set [5] it was 90 to 100%; in data set [6] it was 90 to 100%; in data set [7], 90 to 100%.

For `CC1(C(O)(Cc2ccccc2F)Cn2cncc2C#N)CC1` (stereo not shown) [Example I-131], the chromatographic logP in data set [1] was found to be 2.68. The pest or weed control at 500 ppm in data set [2] fell in the range of 70 to 79%; in data set [3], 90 to 100%; in data set [4], 80 to 89%; in data set [5] it was 90 to 100%; in data set [6], 90 to 100%; in data set [7], 90 to 100%.

As for `N#Cc1cncn1CC(O)(Cc1ccccc1F)C1CC1` (stereo not shown) [Example I-136], the pest or weed control at 500 ppm in data set [3], in data set [5], in data set [6], in data set [7] and in data set [8] was 90 to 100% each time.

`N#Cc1cncn1CC(O)(Cc1ccccc1F)C1CCC1` (stereo not shown) [Example I-137] gave a chromatographic logP in data set [1] of 2.46. For the same molecule, the pest or weed control at 500 ppm fell in the range of 70 to 79% in data set [2]; 80 to 89% in data set [3]; 90 to 100% in data set [5]; 90 to 100% in data set [6]; 90 to 100% in data set [7].

Turning to `CC(C)C(O)(Cc1ccccc1F)Cn1cncc1C#N` (stereo not shown) [Example I-139], the chromatographic logP in data set [1] was found to be 2.4. Besides, the pest or weed control at 500 ppm in data set [2] lay in the range of 90 to 100%; in data set [3] it was 90 to 100%; in data set [4], 70 to 79%; in data set [5] it was 90 to 100%; in data set [6], 90 to 100%; in data set [7] it was 90 to 100%.

In data set [1], `Cc1cccc(CC(O)(Cn2cncc2C#N)C2(Cl)CC2)c1F` (stereo not shown) [Example I-142] had a chromatographic logP of 2.99. The pest or weed control at 500 ppm in data set [2] lay within 80 to 89%; in data set [3], 80 to 89%; in data set [4], 80 to 89%; in data set [5], 70 to 79%; in data set [6], 90 to 100%; in data set [7] it was 90 to 100%.

In turn, `CC(C)C(O)(Cc1cccc(F)c1F)Cn1cncc1C#N` (stereo not shown) [Example I-149] had a chromatographic logP in data set [1] of 2.47. Besides, the pest or weed control at 500 ppm lay within 70 to 79% in data set [2]; 90 to 100% in data set [3]; 80 to 89% in data set [5]; 90 to 100% in data set [6]; 90 to 100% in data set [7].

For `OC(Cc1ccccc1I)(Cn1cncc1Cl)C1(Cl)CC1` (stereo not shown) [Example I-167], the pest or weed control at 500 ppm in data set [2] was in the range of 90 to 100%; in data set [3], 80 to 89%; in data set [4] it was 80 to 89%; in data set [6], 90 to 100%; in data set [7], 90 to 100%.
